Measured values taken from ChEMBL document CHEMBL5143760, “Inhibitors of Transforming Growth Factor Beta Receptor 1 (TGFβr1) May Enhance the Efficacy of Several Monoclonal Antibodies as Cancer Therapy” (2022).
Active and inactive are the calls of the source. No cut-off for these calls is given here.

Key:
4T1 [1] = assay: Antitumor activity against mouse 4T1 cells xenografted in Balb/cj mouse assessed as inhibition of tumor growth at 30 mg/kg, po twice daily for 21 days in presence of OXO40 monoclonal antibody relative to control; format: functional; conditions: 4T1, 504 h, time 21 day, read-out: TGI
MC-38 [2] = assay: Antitumor activity against mouse MC38 cells xenografted in C57BL/6 mouse assessed as inhibition of tumor growth at 30 mg/kg, po twice daily co-administered with anti-PD1-antibody at 5 mg/kg, ip twice weekly for 2 weeks; format: functional, organism-based
MC-38 [3] = assay: Antitumor activity against mouse MC38 cells xenografted in C57BL/6 mouse assessed as increase in animal survival at 30 mg/kg, po twice daily co-administered with anti-PD1-antibody at 5 mg/kg, ip twice weekly for 2 weeks; format: functional, organism-based
CT26 [4] = assay: Antitumor activity against mouse CT26 cells xenografted in Balb/c mouse assessed as time of events at 30 mg/kg, po twice daily for 28 days in presence of ant-CTLA4 antibody; format: functional; conditions: time 28 day
CT26 [5] = assay: Antitumor activity against mouse CT26 cells xenografted in Balb/c mouse assessed as tumor growth delay at 30 mg/kg, po twice daily for 28 days in presence of ant-CTLA4 antibody; format: functional; conditions: time 28 day
4T1 [6] = assay: Antitumor activity against mouse 4T1 cells xenografted in Balb/cj mouse assessed as inhibition of tumor growth at 30 mg/kg, po twice daily for 21 days in presence of 4-1BB monoclonal antibody relative to control; format: functional; conditions: 4T1, 504 h, time 21 day, read-out: TGI
4T1 [7] = assay: Antitumor activity against mouse 4T1 cells xenografted in Balb/cj mouse assessed as inhibition of tumor growth at 30 mg/kg, po twice daily for 21 days relative to control; format: functional; conditions: 4T1, 504 h, time 21 day, read-out: TGI
CT26 [8] = assay: Antitumor activity against mouse CT26 cells xenografted in Balb/c mouse assessed as tumor growth delay at 30 mg/kg, po twice daily for 28 days; format: functional; conditions: time 28 day
CT26 [9] = assay: Antitumor activity against mouse CT26 cells xenografted in Balb/c mouse assessed as time of events at 30 mg/kg, po twice daily for 28 days; format: functional; conditions: time 28 day

Compound: CC(C)c1cnc(-c2cc(Cl)ccc2F)cc1Nc1ccncc1C(=O)NC(CO)CO [PF-06952229]
- inhibition in vivo at 30 mg/kg (4T1 [1]): 29.5%
- inhibition (MC-38 [2]): Active
- Activity (MC-38 [3]): Active
- Time (CT26 [4]): 59 days
- Activity (CT26 [5]): 106%
- inhibition in vivo at 30 mg/kg (4T1 [6]): 41%
- inhibition in vivo at 30 mg/kg (4T1 [7]): 18%
- Activity (CT26 [8]): 18%
- Time (CT26 [9]): 33.8 days
